29 compounds from patent publication US20090181963A1, “3H-[1,2,3]TRIAZOLO[4,5-D]PYRIMIDINE COMPOUNDS, THEIR USE AS mTOR KINASE AND PI3 KINASE INHIBITORS, AND THEIR [sequence]” (Wyeth, priority 2008, published 2009) can be followed below.

The target in one test is PI3 Kinase α (Homo sapiens, UniProt P42336). Put plainly: Fluorescence polarization assay for PI3K (PI3 Kinase α). As to conditions: diC8-PI(4,5)P2 substrate, 25 μM ATP, one hour at 25° C. The format is biochemical. (Polarisation of emitted light reports the rotation of a fluorescent probe.)
Chain of PI3 Kinase α (P42336 whole entry): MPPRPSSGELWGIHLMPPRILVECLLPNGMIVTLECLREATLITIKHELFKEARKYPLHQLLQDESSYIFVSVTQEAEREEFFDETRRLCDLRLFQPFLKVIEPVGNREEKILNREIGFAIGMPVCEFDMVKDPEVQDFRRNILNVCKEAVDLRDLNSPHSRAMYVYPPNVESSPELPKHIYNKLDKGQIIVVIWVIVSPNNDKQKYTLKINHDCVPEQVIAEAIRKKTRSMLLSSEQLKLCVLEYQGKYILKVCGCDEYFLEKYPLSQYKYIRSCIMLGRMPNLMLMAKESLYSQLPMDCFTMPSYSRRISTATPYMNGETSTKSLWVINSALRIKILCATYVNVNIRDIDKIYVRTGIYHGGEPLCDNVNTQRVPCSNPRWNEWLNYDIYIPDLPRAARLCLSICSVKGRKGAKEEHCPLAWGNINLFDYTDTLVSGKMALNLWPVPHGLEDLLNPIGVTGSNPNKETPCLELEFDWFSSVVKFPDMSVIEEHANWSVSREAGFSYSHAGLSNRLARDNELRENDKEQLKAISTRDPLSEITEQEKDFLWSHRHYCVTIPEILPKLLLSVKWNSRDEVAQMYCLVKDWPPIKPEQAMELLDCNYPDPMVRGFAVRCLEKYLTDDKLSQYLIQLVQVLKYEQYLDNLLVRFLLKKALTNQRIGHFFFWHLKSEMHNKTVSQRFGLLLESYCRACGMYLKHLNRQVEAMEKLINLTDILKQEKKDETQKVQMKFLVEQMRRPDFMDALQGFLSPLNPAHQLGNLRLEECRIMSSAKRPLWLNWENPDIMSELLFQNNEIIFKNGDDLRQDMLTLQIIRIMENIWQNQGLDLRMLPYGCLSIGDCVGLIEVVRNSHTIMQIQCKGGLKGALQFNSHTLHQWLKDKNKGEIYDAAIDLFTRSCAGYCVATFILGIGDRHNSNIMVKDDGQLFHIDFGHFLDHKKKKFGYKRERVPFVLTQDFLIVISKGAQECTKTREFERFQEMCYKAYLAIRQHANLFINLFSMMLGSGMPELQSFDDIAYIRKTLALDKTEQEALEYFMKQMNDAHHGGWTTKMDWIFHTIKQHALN
Chain of PI3 Kinase α (P27986 whole entry partner): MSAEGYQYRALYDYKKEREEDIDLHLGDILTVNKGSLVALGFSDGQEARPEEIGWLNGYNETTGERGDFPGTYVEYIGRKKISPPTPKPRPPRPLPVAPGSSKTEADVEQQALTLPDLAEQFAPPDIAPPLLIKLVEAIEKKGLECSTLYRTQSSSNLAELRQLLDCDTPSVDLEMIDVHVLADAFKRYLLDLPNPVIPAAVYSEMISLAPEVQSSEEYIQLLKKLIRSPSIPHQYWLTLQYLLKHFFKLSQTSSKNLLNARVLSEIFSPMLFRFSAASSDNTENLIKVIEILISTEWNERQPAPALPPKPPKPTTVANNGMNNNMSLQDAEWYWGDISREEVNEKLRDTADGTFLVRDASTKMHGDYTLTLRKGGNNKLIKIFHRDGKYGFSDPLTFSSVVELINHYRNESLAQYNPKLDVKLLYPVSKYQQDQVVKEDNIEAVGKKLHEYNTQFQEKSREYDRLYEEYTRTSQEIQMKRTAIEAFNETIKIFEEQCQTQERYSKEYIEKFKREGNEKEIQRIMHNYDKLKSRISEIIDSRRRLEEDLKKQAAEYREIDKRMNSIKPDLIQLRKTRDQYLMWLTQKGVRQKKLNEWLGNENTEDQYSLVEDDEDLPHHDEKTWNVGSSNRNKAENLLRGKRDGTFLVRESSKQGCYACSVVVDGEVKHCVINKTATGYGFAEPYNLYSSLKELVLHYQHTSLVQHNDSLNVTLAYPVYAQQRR
Another test has as its target PI3 Kinase γ (Homo sapiens, UniProt P48736). Put plainly: Fluorescence polarization assay for PI3K (PI3 Kinase γ). Conditions: diC8-PI(4,5)P2 substrate, 25 μM ATP, one hour at 25° C. The format is biochemical.

Chain of PI3 Kinase γ (P48736 whole entry): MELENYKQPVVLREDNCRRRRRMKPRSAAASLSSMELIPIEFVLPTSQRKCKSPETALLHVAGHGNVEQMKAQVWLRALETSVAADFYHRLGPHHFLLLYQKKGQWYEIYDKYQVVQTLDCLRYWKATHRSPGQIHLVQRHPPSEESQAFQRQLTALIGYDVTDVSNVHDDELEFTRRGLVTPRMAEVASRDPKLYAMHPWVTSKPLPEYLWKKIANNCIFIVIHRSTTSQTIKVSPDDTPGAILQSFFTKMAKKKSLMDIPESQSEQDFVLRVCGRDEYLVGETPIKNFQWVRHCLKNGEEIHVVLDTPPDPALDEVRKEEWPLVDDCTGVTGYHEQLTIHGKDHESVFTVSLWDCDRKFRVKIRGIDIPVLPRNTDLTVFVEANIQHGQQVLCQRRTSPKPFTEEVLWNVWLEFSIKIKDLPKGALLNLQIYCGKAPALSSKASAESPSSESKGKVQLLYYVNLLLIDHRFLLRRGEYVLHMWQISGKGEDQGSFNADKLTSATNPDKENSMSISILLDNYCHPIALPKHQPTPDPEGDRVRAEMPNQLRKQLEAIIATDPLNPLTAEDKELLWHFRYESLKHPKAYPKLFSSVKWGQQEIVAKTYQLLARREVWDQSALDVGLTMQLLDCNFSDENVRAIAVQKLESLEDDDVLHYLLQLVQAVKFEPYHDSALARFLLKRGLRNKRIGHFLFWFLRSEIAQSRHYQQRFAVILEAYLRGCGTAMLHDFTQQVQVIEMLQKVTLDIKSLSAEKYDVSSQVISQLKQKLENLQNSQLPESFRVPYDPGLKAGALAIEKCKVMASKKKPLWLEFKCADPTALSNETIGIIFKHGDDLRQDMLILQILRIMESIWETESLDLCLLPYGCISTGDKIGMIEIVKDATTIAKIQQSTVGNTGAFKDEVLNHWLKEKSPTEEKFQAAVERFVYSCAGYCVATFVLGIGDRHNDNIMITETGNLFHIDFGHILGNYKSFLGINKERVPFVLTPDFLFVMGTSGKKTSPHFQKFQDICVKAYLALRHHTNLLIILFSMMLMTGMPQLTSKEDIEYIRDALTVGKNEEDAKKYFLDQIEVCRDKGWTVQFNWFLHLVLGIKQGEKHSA

Take “1-{4-[3-(2-hydroxyethyl)-7-morpholin-4-yl-3H-[1,2,3]triazolo[4,5-d]pyrimidin-5-yl]phenyl}-3-pyridin-4-ylurea [Example 183]”: the IC50 at PI3 Kinase α came out at 5.3 nM; on PI3 Kinase γ it was 20 nM.

Consider “3-{3-[4-(4-Benzylpiperazin-1-yl)butyl]-7-morpholin-4-yl-3H-[1,2,3]triazolo[4,5-d]pyrimidin-5-yl}phenol [Example 206]”, for which the half-maximal inhibitory concentration (IC50) against PI3 Kinase α worked out at 116 nM; against PI3 Kinase γ, 216 nM.

On to `Oc1cccc(-c2nc(N3CCOCC3)c3nnn(C4CCN(Cc5ccccc5)CC4)c3n2)c1` [Example 1, 3-[3-(1-benzylpiperidin-4-yl)-7-morpholin-4-yl-3H-[1,2,3]triazolo[4,5-d]pyrimidin-5-yl]phenol], for which the IC50 on PI3 Kinase α came to 121 nM; against PI3 Kinase γ, 667 nM.

`Nc1ncc(-c2nc(N3CCOCC3)c3nnn(C4CCN(Cc5ccccc5)CC4)c3n2)cn1` [Example 2, 5-[3-(1-benzylpiperidin-4-yl)-7-morpholin-4-yl-3H-[1,2,3]triazolo[4,5-d]pyrimidin-5-yl]pyrimidin-2-amine]: the IC50 amounted to 1820 nM against PI3 Kinase α and 4330 nM against PI3 Kinase γ.

In the case of `Oc1cncc(-c2nc(N3CCOCC3)c3nnn(C4CCN(Cc5ccccc5)CC4)c3n2)c1` [Example 3, 5-[3-(1-benzylpiperidin-4-yl)-7-morpholin-4-yl-3H-[1,2,3]triazolo[4,5-d]pyrimidin-5-yl]pyridin-3-ol], the results for the IC50 against PI3 Kinase α and at PI3 Kinase γ were 69 nM and 133 nM, respectively.

On to `CN(C)CCNC(=O)Nc1ccc(-c2nc(N3CCOCC3)c3nnn(C4CCN(Cc5ccccc5)CC4)c3n2)cc1` [Example 4, 1-{4-[3-(1-benzylpiperidin-4-yl)-7-morpholin-4-yl-3H-[1,2,3]triazolo[4,5-d]pyrimidin-5-yl]phenyl}-3-[2-(dimethylamino)ethyl]urea], for which the figures for the half-inhibitory concentration (IC50) at PI3 Kinase α and against PI3 Kinase γ were 66 nM and 204 nM, respectively.

For `O=C(Nc1ccc(-c2nc(N3CCOCC3)c3nnn(C4CCN(Cc5ccccc5)CC4)c3n2)cc1)C(F)(F)F` [Example 5, N-{4-[3-(1-benzylpiperidin-4-yl)-7-morpholin-4-yl-3H-[1,2,3]triazolo[4,5-d]pyrimidin-5-yl]phenyl}-2,2,2-trifluoroacetamide], the IC50 worked out at 68 nM against PI3 Kinase α and 133 nM on PI3 Kinase γ.

Take `CNC(=O)Nc1ccc(-c2nc(N3CCOCC3)c3nnn(C4CCN(Cc5ccccc5)CC4)c3n2)cc1` [Example 6, 1-{4-[3-(1-benzylpiperidin-4-yl)-7-morpholin-4-yl-3H-[1,2,3]triazolo[4,5-d]pyrimidin-5-yl]phenyl}-3-methylurea]: the IC50 against PI3 Kinase α turned out to be 100 nM; against PI3 Kinase γ it was 620 nM.

With `CC(=O)NCCn1nnc2c(N3CCOCC3)nc(-c3cccc(O)c3)nc21` [Example 7, N-{2-[5-(3-hydroxyphenyl)-7-morpholin-4-yl-3H-[1,2,3]triazolo[4,5-d]pyrimidin-3-yl]ethyl}acetamide], the results for the IC50 against PI3 Kinase α and at PI3 Kinase γ were 171 nM and 406 nM, respectively.

On to `CC(=O)NCCn1nnc2c(N3CCOCC3)nc(-c3cccc(CO)c3)nc21` [Example 8, N-(2-{5-[3-(hydroxymethyl)phenyl]-7-morpholin-4-yl-3H-[1,2,3]triazolo[4,5-d]pyrimidin-3-yl}ethyl)acetamide], for which the concentration for half-maximal inhibition (IC50) at PI3 Kinase α worked out at 86 nM; against PI3 Kinase γ it was 196 nM.

Regarding `Oc1cccc(-c2nc(N3CCOCC3)c3nnn(CCCN4CCCC4)c3n2)c1` [Example 9, 3-[7-morpholin-4-yl-3-(3-pyrrolidin-1-ylpropyl)-3H-[1,2,3]triazolo[4,5-d]pyrimidin-5-yl]phenol], the IC50 was 57 nM on PI3 Kinase α and 242 nM at PI3 Kinase γ.

As for `OCc1cccc(-c2nc(N3CCOCC3)c3nnn(CCCN4CCCC4)c3n2)c1` [Example 10, {3-[7-morpholin-4-yl-3-(3-pyrrolidin-1-ylpropyl)-3H-[1,2,3]triazolo[4,5-d]pyrimidin-5-yl]phenyl}methanol], the IC50 at PI3 Kinase α turned out to be 132 nM; on PI3 Kinase γ, 154 nM.

As for `CCn1nnc2c(N3CCOCC3)nc(-c3ccc(NC(=O)Nc4ccc([N+](=O)[O-])cc4)cc3)nc21` [Example 247, 1-[4-(3-ethyl-7-morpholin-4-yl-3H-[1,2,3]triazolo[4,5-d]pyrimidin-5-yl)phenyl]-3-(4-nitrophenyl)urea], the IC50 at PI3 Kinase γ was 15 nM.

`CCn1nnc2c(N3CCOCC3)nc(-c3ccc(NC(=O)Nc4ccc(NCc5ccncc5)cc4)cc3)nc21` [Example 252, 1-[4-(3-ethyl-7-morpholin-4-yl-3H-[1,2,3]triazolo[4,5-d]pyrimidin-5-yl)phenyl]-3-{4-[(pyridin-4-ylmethyl)amino]phenyl}urea]: on PI3 Kinase γ, inhibition was half-maximal at 3.83 nM (IC50).

`CCn1nnc2c(N3CCOCC3)nc(-c3ccc(NC(=O)Nc4ccc(NCc5ccc(F)nc5)cc4)cc3)nc21` [Example 254, 1-[4-(3-ethyl-7-morpholin-4-yl-3H-[1,2,3]triazolo[4,5-d]pyrimidin-5-yl)phenyl]-3-(4-{[(6-fluoropyridin-3-yl)methyl]amino}phenyl)urea]: half-maximal inhibition against PI3 Kinase γ (IC50) was put at 7.5 nM.

Take `CCn1nnc2c(N3CCOCC3)nc(-c3ccc(NC(=O)Nc4ccc(NCc5ccc(OC)nc5)cc4)cc3)nc21` [Example 255, 1-[4-(3-ethyl-7-morpholin-4-yl-3H-[1,2,3]triazolo[4,5-d]pyrimidin-5-yl)phenyl]-3-(4-{[(6-methoxypyridin-3-yl)methyl]amino}phenyl)urea]: at PI3 Kinase γ, the half-maximal inhibitory concentration (IC50) is 5 nM. Compared with the last compound, the IC50 is about 1.5-fold lower.

For the compound `CC(C)n1nnc2c(N3CCOCC3)nc(-c3ccc(NC(=O)Nc4ccc(C(=O)N5CCN(C)CC5)cc4)cc3)nc21` [Example 257, 1-{4-[3-(1-methylethyl)-7-morpholin-4-yl-3H-[1,2,3]triazolo[4,5-d]pyrimidin-5-yl]phenyl}-3-{4-[(4-methylpiperazin-1-yl)carbonyl]phenyl}urea], the half-inhibitory concentration (IC50) at PI3 Kinase γ was found to be 10 nM.

`CCn1nnc2c(N3CCOCC3)nc(-c3ccc(NC(=O)Nc4ccc(N5CCN(C)CC5)cc4)cc3)nc21` [Example 259, 1-[4-(3-ethyl-7-morpholin-4-yl-3H-[1,2,3]triazolo[4,5-d]pyrimidin-5-yl)phenyl]-3-[4-(4-methylpiperazin-1-yl)phenyl]urea] gave a 50% inhibitory concentration (IC50) on PI3 Kinase γ of 4 nM.

Turning to `CCn1nnc2c(N3CCOCC3)nc(-c3ccc(NC(=O)Nc4ccc(NC(=O)N5CCOCC5)cc4)cc3)nc21` [Example 263, N-[4-({[4-(3-ethyl-7-morpholin-4-yl-3H-[1,2,3]triazolo[4,5-d]pyrimidin-5-yl)phenyl]carbamoyl}amino)phenyl]morpholine-4-carboxamide], on PI3 Kinase γ, half-maximal inhibition (IC50) was put at 3.1 nM. The IC50 values of the last two compounds are within 1.5-fold of each other.

At PI3 Kinase γ, `CCn1nnc2c(N3CCOCC3)nc(-c3ccc(NC(=O)Nc4ccc(NC(=O)NCCOC)cc4)cc3)nc21` [Example 276, 1-[4-(3-ethyl-7-morpholin-4-yl-3H-[1,2,3]triazolo[4,5-d]pyrimidin-5-yl)phenyl]-3-(4-{[(2-methoxyethyl)carbamoyl]amino}phenyl)urea] came in with an IC50 of 4.45 nM. The IC50 values of the last two compounds are within 1.5-fold of each other.

The compound `CC(C)n1nnc2c(N3CCOCC3)nc(-c3ccc(NC(=O)Nc4ccc(N5CCN(C)CC5)cc4)cc3)nc21` [Example 277, 1-{4-[3-(1-methylethyl)-7-morpholin-4-yl-3H-[1,2,3]triazolo[4,5-d]pyrimidin-5-yl]phenyl}-3-[4-(4-methylpiperazin-1-yl)phenyl]urea] had an IC50 at PI3 Kinase γ of 5.5 nM.

On to `CC(C)n1nnc2c(N3CCOCC3)nc(-c3ccc(NC(=O)Nc4ccc([N+](=O)[O-])cc4)cc3)nc21` [Example 278, 1-{4-[3-(1-methylethyl)-7-morpholin-4-yl-3H-[1,2,3]triazolo[4,5-d]pyrimidin-5-yl]phenyl}-3-(4-nitrophenyl)urea], for which inhibition against PI3 Kinase γ was half-maximal at 21.5 nM (IC50). This IC50 is about 3.9-fold higher than that of the compound before.

For the compound `CC(C)n1nnc2c(N3CCOCC3)nc(-c3ccc(NC(=O)Nc4ccc(NS(C)(=O)=O)cc4)cc3)nc21` [Example 279, N-[4-({[4-(3-isopropyl-7-morpholin-4-yl-3H-[1,2,3]triazolo[4,5-d]pyrimidin-5-yl)phenyl]carbamoyl}amino)phenyl]methanesulfonamide], 12 nM corresponded to half-maximal inhibition against PI3 Kinase γ (IC50).

Consider `CC(C)n1nnc2c(N3CCOCC3)nc(-c3ccc(NC(=O)Nc4ccc(N)cc4)cc3)nc21` [Example 280, 1-(4-aminophenyl)-3-[4-(3-isopropyl-7-morpholin-4-yl-3H-[1,2,3]triazolo[4,5-d]pyrimidin-5-yl)phenyl]urea], for which, on PI3 Kinase γ, inhibition was half-maximal at 7.5 nM (IC50). This IC50 lies about 1.6-fold lower than the previous one.

The compound `CCn1nnc2c(N3CCOC[C@@H]3C)nc(-c3ccc(NC(=O)Nc4ccc(C(=O)N5CCC(N(C)C)CC5)cc4)cc3)nc21` [Example 281, (S)-1-(4-(4-(dimethylamino)piperidine-1-carbonyl)phenyl)-3-(4-(3-ethyl-7-(3-methylmorpholino)-3H-[1,2,3]triazolo[4,5-d]pyrimidin-5-yl)phenyl)urea] yielded a concentration for half-maximal inhibition (IC50) against PI3 Kinase γ of 2.8 nM.

Turning to `CCn1nnc2c(N3CCOC[C@@H]3C)nc(-c3ccc(NC(=O)Nc4ccc(C(=O)NCCN5CCCC5)cc4)cc3)nc21` [Example 283, 4-{[(4-{3-ethyl-7-[(3S)-3-methylmorpholin-4-yl]-3H-[1,2,3]triazolo[4,5-d]pyrimidin-5-yl}phenyl)carbamoyl]amino}-N-(2-pyrrolidin-1-ylethyl)benzamide], on PI3 Kinase γ, the half-maximal inhibitory concentration (IC50) came out at 3.35 nM.

Compound `CCn1nnc2c(N3CCOC[C@@H]3C)nc(-c3ccc(NC(=O)Nc4ccc(C(=O)NCCN5CCCCC5)cc4)cc3)nc21` [Example 284, 4-{[(4-{3-ethyl-7-[(3S)-3-methylmorpholin-4-yl]-3H-[1,2,3]triazolo[4,5-d]pyrimidin-5-yl}phenyl)carbamoyl]amino}-N-(2-piperidin-1-ylethyl)benzamide] had a concentration for half-maximal inhibition (IC50) against PI3 Kinase γ of 4.35 nM.

Regarding `CCn1nnc2c(N3CCOCC3)nc(-c3ccc(NC(=O)Nc4ccc(C(=O)OC)nc4)cc3)nc21` [Example 287, Methyl 5-({[4-(3-ethyl-7-morpholin-4-yl-3H-[1,2,3]triazolo[4,5-d]pyrimidin-5-yl)phenyl]carbamoyl}amino)pyridine-2-carboxylate], at PI3 Kinase γ, the concentration for half-maximal inhibition (IC50) came to 91.5 nM.

On to `CCn1nnc2c(N3CCOCC3)nc(-c3ccc(NC(=O)Nc4ccc(C(=O)N5CCN(C)CC5)nc4)cc3)nc21` [Example 289, 1-[4-(3-ethyl-7-morpholin-4-yl-3H-[1,2,3]triazolo[4,5-d]pyrimidin-5-yl)phenyl]-3-{6-[(4-methylpiperazin-1-yl)carbonyl]pyridin-3-yl}urea], for which half-maximal inhibition at PI3 Kinase γ (IC50) was put at 6 nM.

One may read the IC50 as the midpoint of a concentration-inhibition curve. A high value points to lower potency.
